Common to all, as to type: in vivo
Experiment [1] has as its system corn rootworm (Diabrotica undecimpunctata). Briefly: Use Example D: activity against eggs/larvae of the corn rootworm. The note with it: Diabrotica undecimpunctata, 168 h; aqueous emulsion 0.1%, 0.2 ml pipetted into soil; 7 days at 25 C; death of eggs or newly hatched larvae. The protocol:
Activity against eggs/larvae of the corn rootworm (Diabrotica undecimpunctata)
The compounds of the invention were made up as aqueous emulsions at a concentration of 0.1%. Into the soil in polystyrene petri dishes, containing maize seedlings (1 seedling/dish) and ca. 50 eggs of the corn rootworm (Diabrotica undecimpunctata) were pipetted 0.2 ml of these preparations. The closed dishes were left at 25 C under extended daylight conditions for 7 days. The criterion for judging the activity was the death of eggs or newly hatched larvae at the end of the test.

The subject of experiment [2] is cotton bollworm (Heliothis viriscens). Briefly: whole plant or invertebrate. The note with it: 48 h, read-out: activity. The procedure: Activity against larvae (L1) of the cotton bollworm (Heliothis viriscens)
Compounds of the invention were made up as aqueous preparations at a concentration of 0.1 %. Into these, feed material was dipped for 2 seconds. After drying the feed material was put into into polystyrene petri dishes. After an hour, 10 L1 of the cotton bollworm (Heliothis viriscens) were counted into the dishes. The closed dishes were left for up to 7 days at 25 °C under extended daylight conditions. The % mortality of the larvae after two days indicated the level of activity.

The subject of the next experiment is Aphis fabae. Briefly: Activity in prophylactic treatment of leaf discs against Aphis fabae. As to conditions: Aphis fabae, foliar, 48 h; 0.1% aqueous preparation; field bean leaf discs infested with wingless stages; 2 days at 25 C; percentage mortality, Abbott's method. The procedure:
From the primary leaf of field beans (Phaseolus vulgaris nanus Aschers.), 24 mm diameter discs were cut. Some of these were treated with a 0.1% aqueous preparations of compounds of the invention and these along side untreated discs were placed on filter papers with the underside of the leaves turned upwards. After drying the test pieces, they were each infested with wingless stages of Aphis fabae (approx 100 per leaf piece). The experiment was replicated 3 times. The leaves were kept on wet filter papers for 2 days at 25 C and 16 hours light per day. The percentage mortality was then estimated and the activity calculated using Abbott's method in comparison with the untreated controls.

Experiment [3] concerns two spotted mite (Tetranychus urticae Koch). Briefly: Use Example C: activity in the prophylactic treatment of feed against the two spotted mite. As to conditions: foliar, 0.1 % aqueous preparation, field bean leaf discs, adults and eggs counted after 3 days at 25 C, larvae after a further 7 days, Abbott's method. The protocol: Activity in the prophylactic treatment of feed against the two spotted mite (Tetranychus urticae Koch)
From the primary leaf of field beans (Phaseolus vulgaris nanus Aschers.) 14 mm diameter discs were cut. Some of these were treated with a 0.1 % aqueous preparations of compounds of the invention and these along side untreated discs were placed on filter papers with the underside of the leaves turned upwards. After drying the test pieces, they were each infested with six adult female Tetranychus urticae and maintained for 3 days at 25 C and 16 hours light per day. The experiment was replicated 4 times. Dead and alive adults were then counted and removed. Similarly the number of eggs laid were counted. After a further 7 days, the number of living larvae were counted, the activity calculated using Abbott's method in comparison with the untreated controls.

The test system of experiment [4] is cotton army worm (Spodoptera littoralis). Put plainly: Use Example F: ovicidal activity against eggs of the cotton army worm. The note with it: aqueous preparation 0.1 %; one day old eggs dipped; four days; % inhibition of hatching of the eggs. The text has this: Ovicidal activity against eggs of the cotton army worm (Spodoptera littoralis).
The compounds of the invention were made up as aqueous preparations at a concentration of 0.1 %. One day old eggs that had been laid on filter paper by fertilised female moths were dipped in the preparations until they were completely wet and then placed in closed petri dishes in the laboratory under extended daylight conditions for four days. The % inhibition of hatching of the eggs in comparison with untreated eggs indicates the level of activity.

In experiment [5] the test system is brown rice-hoppers (Niliparvata lugens Stal). Briefly: Use Example B: activity in prophylactic treatment of leaves against brown rice-hoppers. The note with it: 48 h, read-out: activity. The text has this:
Activity in prophylactic treatment of leaves against brown rice-hoppers (Niliparvata lugens Stal)
Rice seedlings (Oryzae sativa L.) in the two leaf stage (about 10 per polystyrene pot of size 6.5 x 6.5 cm) were either untreated or […] until dripping wet, with an aqueous preparation containing 0.1 % of active material. After drying the sprayed leaves, a transparent cylinder was placed over each pot and through an opening, about 30 brown rice-hoppers (Niliparvata lugens) in the 4-5 stage, anaesthetised with carbon dioxide, were introduced into each pot. After closing the opening with a fine mesh screen, the pots were kept for 2 days at 28° C and 16 hours/day of light in the glasshouse, the amount of dead hoppers was determined. The percentage mortality was then estimated and the activity calculated using Abbott's method in comparison with the untreated controls.

Experiment [6] relates to Sheep blowfly (Lucilia sericata). Put plainly: whole plant or invertebrate. As to conditions: 24 h, read-out: LCso. The protocol:
Activity against Sheep blowfly (Lucilia sericata)
1 ml aliquots of acetone solutions or suspensions, containing test compound at various concentrations, were applied to cotton wool dental rolls (1 cm x 2 cm), contained in glass vials 2 cm diameter x 5 cm long. After drying, the treated materials were then impregnated with 1 ml of nutrient solution, infested with approximately 30 first instar larvae of sheep blow fly (Lucilia sericata), closed by a cotton wool plug and held at 25 C for 24 hours.

The next experiment concerns Boophilus microplus. Put plainly: whole plant or invertebrate. The note with it: Rhipicephalus microplus, 48 h, read-out: concentration causing 50% mortality. The protocol:
Tickicidal activity against Boophilus microplus
9 cm diameter filter papers were impregnated with 1 ml aliquots of acetone solutions of test compound at various concentrations. The papers were allowed to dry and then folded into envelopes in which cattle tick larvae, (Boophilus microplus) were enclosed and held at 25°C and 80% R.H. for 48 hours. The percentage mortality of tick larvae was then recorded and compared with controls.

The subject of experiment [7] is house fly (Musca domestica). Put plainly: Use Example J: activity against house fly. As to conditions: adult houseflies on treated filter papers; 22 C for 24 hours. The procedure:
Activity against house fly (Musca domestica)
Aliquots (0.7 ml) of acetone solutions or suspensions of test compounds at various concentrations were applied to filter papers (9 cm diameter) placed in the bottom of petri dishes (9 cm diameter) closed by glass lids. After evaporation of solvent, the treated surfaces, together with controls treated with acetone alone, were then infested with adult houseflies, (Musca domestica) and held at 22 C for 24 hours. The percentage mortality of the insects was then recorded.

Experiment [8] has as its system corn rootworm (Diabrotica undecimpunctata). Briefly: Use Example E: soil insecticide activity against eggs/larvae of the corn rootworm. As to conditions: aqueous preparation 0.0025%, 5 ml into 50 cm^3 earth, 10 days at 25 C.
Protocol: Soil insecticide activity against eggs/larvae of the corn rootworm (Diabrotica undecimpunctata)
5 ml of these preparations were pipetted into 300 ml clear plastic beakers, containing 50 cm^3 earth and ca. 50 Diabrotica eggs, as well as 2 presoaked maize seeds. The sealed pots were left for 10 days under extended daylight conditions at 25 C. The criterion for judging the activity after 10 days was the larvicidal activity and the root growth of the emerging maize plants in the treated pots in comparison with untreated controls.
Experiment [9] relates to cotton bollworm (Heliothis viriscens). Briefly: Use Example H: ovicidal activity against eggs of the cotton bollworm. The note with it: aqueous preparation 0.1 %; one day old eggs dipped; four days; % inhibition of hatching of the eggs. The text has this: Ovicidal activity against eggs of the cotton bollworm (Heliothis viriscens)
The compounds of the invention were made up as aqueous preparations at a concentration of 0.1 %. One day old eggs that had been laid on filter paper by fertilised female moths were dipped in the preparations until they were completely wet and then placed in closed petri dishes under extended daylight conditions for four days. The % inhibition of hatching of the eggs in comparison with untreated eggs indicates the level of activity.

A value given as a limit tells only on which side of the number the result lay.

With `C=C(C)C(C)(C)CCCc1ccc(F)c(Oc2ccccc2)c1` [Example 4, 6-(4-fluoro-3-phenoxyphenyl)-2,3,3-trimethyl-1-hexene], the mortality at 0.1 % was 80 to 100% in experiment [1]; 80 to 100% in experiment [2]; at least 80% with Aphis fabae; 80 to 100% in experiment [3]; at least 80% in experiment [5]. Also, in experiment [4], the activity is 80 - 100%.

Take `C=C(C)C(C)(C)COCc1ccc(F)c(Oc2ccccc2)c1` [Example 5, 4-(4-fluoro-3-phenoxybenzyloxy)-2,3,3-trimethyl-1-butene]: the mortality at 0.1 % in [1] is 80 to 100%; in experiment [2], 80 to 100%; with Aphis fabae, at least 80%; in [3], 80 to 100%. The LC50 in experiment [6] is under 300 µg/mL; with Boophilus microplus it was at most 100 µg/mL. The activity in experiment [4] is recorded as 80 - 100%. Also, in [7], the LDso entry was “less than 1000 mg/m^2”.

Regarding `CC(C)(COCc1cccc(Oc2ccccc2)c1)C1=CCCCC1` [Example 8, 2-(cyclohexen-1-yl)-2-methyl-1-(3-phenoxybenzyloxy)propane], the mortality at 0.1 % in experiment [1] and in experiment [2] was 80 to 100% each time.

Take `CC(C)(COCc1ccc(F)c(Oc2ccccc2)c1)C1=CCCC1` [Example 10, 2-(cyclopenten-1-yl)-1-(4-fluoro-3-phenoxybenzyloxy)-2-methylpropane]: the mortality at 0.1 % in experiment [2] is 80 to 100%; in the experiment on Aphis fabae, at least 80%; in [3], 80 to 100%.

Take `C=C(C)C(C)(C)COCc1cccc(Oc2ccccc2)c1` [Example 16, 4-(3-phenoxybenzyloxy)-2,3,3-trimethyl-1-butene]: the LC50 was under 300 µg/mL in experiment [6] and at most 100 µg/mL in the experiment on Boophilus microplus. In addition, in experiment [7], the LDso result is “less than 1000 mg/m^2”. Also, the mortality at 0.1 % in experiment [5] is at least 80%. The mortality at 0.0025 % in experiment [8] (Diabrotica undecimpunctata, soil, 240 h, read-out: larvicidal activity) lay within 90 to 100%. Also, the “root growth of the emerging maize plants” value in experiment [8] (in comparison with untreated controls) is recorded as “good root growth”.

As to `C=C(C)C(C)(C)COCc1ccc(F)c(Nc2ccccc2)c1` [Example 20, 4-(3-anilino-4-fluorobenzyloxy)-2,3,3-trimethyl-1-butene], the mortality at 0.1 % in [1] was 80 to 100%; in [2], 80 to 100%; in the experiment on Aphis fabae it was at least 80%; in experiment [3] it was 80 to 100%; in experiment [5] it was at least 80%. Also, the activity in [9] is on record as 80 - 100%.

For the compound `C=C(Br)C(C)(C)COCc1ccc(F)c(Oc2ccccc2)c1` [Example 59, 2-bromo-3,3-dimethyl-4-(4-fluoro-3-phenoxybenzyloxy)-1-butene], the mortality at 0.1 % in experiment [1] is 80 to 100%; in experiment [2], 80 to 100%; with Aphis fabae, at least 80%; in [3], 80 to 100%; in experiment [5], at least 80%.

In the case of `CC(C)(COCc1c(F)c(F)c(F)c(F)c1F)C1=CCCC1` [Example 62, 2-(cyclopenten-1-yl)-2-methyl-1-(2,3,4,5,6-pentafluorobenzyloxy)propane], the mortality at 0.1 % in experiment [2] lay in the range of 80 to 100%.

On to `C=C(I)C(C)(C)CCCc1cccc(Oc2ccccc2)c1` [Example 63, 3,3-dimethyl-2-iodo-6-(3-phenoxy-phenyl)-1-hexene], for which the results for the mortality at 0.1 % in experiment [2] and in experiment [5] were 80 to 100% and at least 80%, respectively.

These data come from patent EP0378285A1, “Substituted alkenes, processes for their preparation and their use as pesticides” (priority 1989, dated 1990).
